In ChEMBL document CHEMBL4402545, “Subtype Selective γ-Aminobutyric Acid Type A Receptor (GABAAR) Modulators Acting at the Benzodiazepine Binding Site: An Update” (J Med Chem, 2020):

Tests used:
[1] = test system: Homo sapiens; assay: In vivo receptor occupancy GABAA receptor in human assessed as occipital cortex concentration causing reduction in [11C]flumazenil receptor labeling at 20 mg by PET method relative to control; assay type: functional
[2] = test system: Homo sapiens; assay: In vivo receptor occupancy GABAA receptor in human assessed as cerebellum concentration causing reduction in [11C]flumazenil receptor labeling at 20 mg by PET method relative to control; assay type: functional
[3] = test system: Rattus norvegicus; assay: In vivo receptor occupancy at GABAA receptor in sc dosed rat brain; assay type: functional
[4] = target: T1, Gamma-aminobutyric acid receptor subunit alpha-2 (Homo sapiens, UniProt P47869); assay: Binding affinity to GABA-A alpha2 (unknown origin)
T1 sequence (P47869 whole entry): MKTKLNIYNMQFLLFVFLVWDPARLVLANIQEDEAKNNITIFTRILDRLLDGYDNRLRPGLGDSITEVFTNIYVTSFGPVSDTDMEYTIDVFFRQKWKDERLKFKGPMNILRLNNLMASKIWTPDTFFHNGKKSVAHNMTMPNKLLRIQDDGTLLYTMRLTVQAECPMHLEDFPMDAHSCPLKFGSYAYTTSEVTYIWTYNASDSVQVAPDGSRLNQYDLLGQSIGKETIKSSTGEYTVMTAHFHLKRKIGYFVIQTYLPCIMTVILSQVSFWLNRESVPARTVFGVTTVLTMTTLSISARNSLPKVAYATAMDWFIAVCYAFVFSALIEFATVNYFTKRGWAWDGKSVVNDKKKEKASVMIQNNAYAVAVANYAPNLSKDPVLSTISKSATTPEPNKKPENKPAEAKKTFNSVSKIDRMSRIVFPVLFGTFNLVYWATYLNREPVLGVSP

[5] = test system: Rhesus monkey; assay: In vivo receptor occupancy at GABAA receptor in iv dosed rhesus monkey assessed as plasma concentration causing 50% reduction in [11C]-flumazenil receptor labeling by PET method; assay type: functional, Macaca mulatta
[6] = test system: Homo sapiens; assay: In vivo receptor occupancy at GABAA receptor in human at 5 mg, po relative to control; assay type: functional
[7] = test system: Rattus norvegicus; assay: In vivo receptor occupancy at GABAA receptor in po dosed Sprague-Dawley rat assessed as plasma concentration causing 50% reduction in [3H]-flumazenil receptor labeling after 0.5 hrs; assay type: functional
[8] = target: T2, Gamma-aminobutyric acid receptor subunit alpha-3 (Homo sapiens, UniProt P34903); assay: Binding affinity to GABA-A alpha3 (unknown origin)
T2 sequence (P34903 whole entry): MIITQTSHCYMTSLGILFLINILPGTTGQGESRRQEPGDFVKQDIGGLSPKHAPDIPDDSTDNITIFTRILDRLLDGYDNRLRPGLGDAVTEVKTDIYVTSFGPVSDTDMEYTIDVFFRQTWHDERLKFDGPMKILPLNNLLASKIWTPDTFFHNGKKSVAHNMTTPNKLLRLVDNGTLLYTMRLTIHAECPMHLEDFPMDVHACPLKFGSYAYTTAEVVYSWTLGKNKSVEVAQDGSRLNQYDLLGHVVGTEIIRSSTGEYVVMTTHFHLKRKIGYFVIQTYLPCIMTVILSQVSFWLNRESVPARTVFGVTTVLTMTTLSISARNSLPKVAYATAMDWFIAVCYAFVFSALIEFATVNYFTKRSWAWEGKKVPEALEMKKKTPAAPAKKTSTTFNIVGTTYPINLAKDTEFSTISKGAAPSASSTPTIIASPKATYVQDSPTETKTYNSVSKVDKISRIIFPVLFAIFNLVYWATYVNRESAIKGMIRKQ

[9] = target: T3, Gamma-aminobutyric acid receptor subunit alpha-1 (Homo sapiens, UniProt P14867); assay: Binding affinity to GABA-A alpha1 (unknown origin)
T3 sequence (P14867 whole entry): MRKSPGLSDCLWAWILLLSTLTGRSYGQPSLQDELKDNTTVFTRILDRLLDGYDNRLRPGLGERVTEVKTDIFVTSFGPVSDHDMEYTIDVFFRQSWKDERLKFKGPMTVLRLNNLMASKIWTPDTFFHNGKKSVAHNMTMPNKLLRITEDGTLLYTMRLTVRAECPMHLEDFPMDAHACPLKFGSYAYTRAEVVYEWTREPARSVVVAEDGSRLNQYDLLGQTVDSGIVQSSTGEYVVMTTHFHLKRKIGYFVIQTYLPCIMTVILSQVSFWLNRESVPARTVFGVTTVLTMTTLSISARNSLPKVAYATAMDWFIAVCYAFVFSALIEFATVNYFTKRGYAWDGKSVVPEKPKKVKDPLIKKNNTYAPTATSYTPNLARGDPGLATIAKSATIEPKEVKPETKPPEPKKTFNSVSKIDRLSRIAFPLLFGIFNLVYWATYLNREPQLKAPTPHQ

[10] = test system: Rattus norvegicus; assay: In vivo receptor occupancy at GABAA receptor in po dosed Sprague-Dawley rat assessed as brain concentration causing 50% reduction in [3H]-flumazenil receptor labeling after 0.5 hrs; assay type: functional
[11] = target: T4, Gamma-aminobutyric acid receptor subunit alpha-2 (Homo sapiens) (UniProt P47869); assay: Binding affinity to GABA-A alpha2 (unknown origin) assessed as reduction in DMCM induced current relative to control
T4 sequence (whole entry): T1 sequence (P47869 whole entry)

[12] = target: T5, Gamma-aminobutyric acid receptor subunit alpha-3 (Homo sapiens) (UniProt P34903); assay: Binding affinity to GABA-A alpha3 (unknown origin) assessed as reduction in DMCM induced current relative to control
T5 sequence (whole entry): T2 sequence (P34903 whole entry)

[13] = target: T6, Gamma-aminobutyric acid receptor subunit alpha-1 (Homo sapiens) (UniProt P14867); assay: Negative allosteric modulation of GABA-A alpha1 (unknown origin) assessed as reduction in DMCM induced current relative to control
T6 sequence (whole entry): T3 sequence (P14867 whole entry)

[14] = test system: Rattus norvegicus; assay: In vivo receptor occupancy at GABAA receptor in po dosed Crl:CD Sprague-Dawley rat assessed as brain concentration causing 50% reduction in [3H]-Ro15-4513 receptor labeling after 1 hr; assay type: functional

Ki [4]	Ki [8]	Ki [9]	Efficacy [11]	Efficacy [12]	Efficacy [13]	SMILES	Occ [1]	Occ [2]	Occ50 [3]	Occ50 [5]	Occ [6]	Occ50 [7]	Occ50 [10]	Occ50 [14]
–	–	–	–	–	–	CCCNC(=O)c1nnc2c(-c3c(F)cccc3OC)cccc2c1N [AZD7325]	83%	83%	1 to 2 µM/g	–	–	–	–	–
0.85 nM	0.77 nM	0.83 nM	–	–	–	Cc1cc(-c2nncc3c(C(C)(C)C)c(OCc4ncnn4C)nn23)no1	–	–	–	21 ng/mL	75%	15 ng/mL	0.39 mg/kg	–
32 nM	24 nM	140 nM	0%	0%	0%	Cc1c(F)c(Nc2ccc(-c3cn(C)cn3)cn2)cc2c1ncn2CC1CC1	–	–	–	–	–	–	–	1.9 mg/kg
